These are literature values, as cited in patent US20060198906A1, “Compositions and Method to Increase Serum Levels of HDL cholesterol and Lower the Risk of Cardiovascular Disease” (SAMI LABS LIMITED, priority 2005, published 2006).

The conditions of this data set: dose range of 20-80 mg/day, clinical studies.

As to `CC(C)c1nc(N(C)S(C)(=O)=O)nc(-c2ccc(F)cc2)c1/C=C/[C@@H](O)C[C@@H](O)CC(=O)O` [Rosuvastatin], the “reduction of LDL levels” value was “up to 65%”.
